# Assay results: US20200190592A1, “PME-1 AS A BIOMARKER TO PREDICT AND DIAGNOSE AN INCREASED RISK OF ENDOMETRIAL CANCER AND GENE SILENCING OF PME-1 TO INHIBIT EPITHELIAL TO MESENCHYMAL TRANSITION” (Medical Diagnostic Laboratories, L.L.C., priority 2018, published 2020)
# Key:
# [1] = tested on: Ishikawa endometrial cancer cells; assay: Foci formation assay in Ishikawa cells; assay type: cell-based, human; conditions: DMSO set to 100%
# Method: This study was completed in Ishikawa endometrial cancer cells.
# 1,000 cells were plated in a six well tissue culture dish in selection media (to include 5 μg/ml puromycin) (InvivoGen). Cells were allowed to adhere and grow in a 5% CO2, 37° C. incubator for 10 to 14 days. […] Cells were stained with 1% crystal violet (Sigma Aldrich) for five minutes and rinsed with PBS. Colonies were counted and data is presented as the percentage of change compared to the control. All Experiments were repeated at least three times.
# Ishikawa cells = assay: Trans-well migration assay; assay type: cell-based, human; conditions: 24 hr, through collagen towards 30% FBS, vs DMSO
# Method: We next asked if PME-1 inhibition led to decreased cell migration by completing a trans-well migration assay. Cells were synchronized for 24 hours in media containing 0% FBS. For this experiment, DMSO was again used as the vehicle control and Ishikawa cells were treated with DMSO (control) or 50 nM ABL-127 or 20 μM AMZ-30 for 24 hr and were allowed to migrate through a collagen-coated well towards the bottom chamber, containing media with 30% FBS.
# The assay was completed with ECC-1 endometrial carcinoma cell lines following kit instructions Cultrex 96 Well Collagen IV Cell Invasion Assay (cat #3458-096-K). Briefly, cells were serum starved for 24 hours prior to experimentation, then counted and put into the top chamber of a collagen type IV coated Transwell membrane at a concentration of 1×10^6 cells/well in 0% FBS. The bottom chamber contained 30% FBS. Cells were allowed to invade at 37° C. humid chamber incubator for 24 hours. Cells that invaded were analyzed using the kit provided Calcein-AM and fluorescence was read using FluoStar Galaxy.
# recombinant PME-1_des3 = target: T1, recombinant PME-1_des3 (Homo sapiens, UniProt Q9Y570); assay: Thermal melt (thermal shift) assay; assay type: binding
# T1 sequence (Q9Y570 1-383 limits assumed): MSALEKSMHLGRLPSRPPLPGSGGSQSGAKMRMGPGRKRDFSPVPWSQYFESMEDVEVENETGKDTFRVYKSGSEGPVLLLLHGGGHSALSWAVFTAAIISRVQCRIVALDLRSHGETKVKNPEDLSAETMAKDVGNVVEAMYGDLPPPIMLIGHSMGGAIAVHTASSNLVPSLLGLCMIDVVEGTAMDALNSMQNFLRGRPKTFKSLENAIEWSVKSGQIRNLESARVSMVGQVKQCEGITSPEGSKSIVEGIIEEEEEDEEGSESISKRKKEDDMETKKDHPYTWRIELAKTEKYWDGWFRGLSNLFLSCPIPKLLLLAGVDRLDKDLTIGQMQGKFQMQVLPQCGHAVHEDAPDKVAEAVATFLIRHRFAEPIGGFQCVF
# Method: There are several commercially available covalent PME-1 inhibitors that we have analyzed as potential endometrial cancer therapeutics. To confirm that the inhibitors directly bind PME-1, we completed a thermal melt assay. One micromole (1 μmole) of recombinant PME-1_des3, of which the last 3 amino acids are deleted, were pre-incubated with SYBR orange in the presence of 50 μM ABL-127 (a potent covalent PME-1 inhibitor, squares) or 0.05% DMSO (vehicle, circles) for 10 minutes (FIG. 25) at 37° C. We then performed a thermal gradient, increasing the temperature by 2° C. each minute from 37° C. to 95° C. and fluorescent signal was detected at 492-601 nm on a thermal cycler. The increase in Tm from ˜55° C. (PME-1+DMSO, circles) to ˜65° C. (PME-1+ABL-127, squares) indicated thermal stabilization of the PME-1 protein via direct binding of the ABL-127 inhibitor (FIG. 25).
# The assay was completed by first conducting a 10 min pre-incubation of one μmole of recombinant PME-1des3 with 50 μM ABL127 (Sigma) or vehicle (0.05% DMSO) in the presence of SYBR Orange (1:1,000, v/v, Sigma) at 37° C. in 1×NEB buffer 2 (50 mM NaCl, 10 mM Tris-HCl, 10 mM MgCl2, 1 mM DTT, pH 7.9 at 25° C.), a thermal gradient was performed increasing temperature by 2° C. per minute increments from 37° to 95° C. and fluorescence (492 nm-610 nm) was acquired on a thermal cycler Mx3005P (Stratagene).
# [2] = target: protein phosphatase 2A (PP2A), endogenous in RL95-2 cells; assay: cell-based or functional assay
# RL95-2 cells [3] = assay: Foci forming assay in RL95-2 cells; assay type: cell-based, human
# Method: A foci forming assay was used in this study to monitor cell growth. Equal amounts of cells were plated and they were allowed to grow for a determined period of time (see Materials and Methods section for details). The foci that were formed were then stained with the crystal violet dye. Cells were washed […] with PBS prior to visualization. Numbers of foci were counted and results were averaged among different experiments.
# To determine if the loss of active PME-1 accounted for the observed decrease in foci formation, we first treated RL95-2 cells with siRNA against the 3′-UTR of PPME1 to decrease endogenous levels of PME-1. […] The S156A PME-1 mutant is not capable of demethylating its target, PP2A.
# 1,000 cells were plated in a six well tissue culture dish in selection media (to include 5 μg/ml puromycin) (InvivoGen). Cells were allowed to adhere and grow in a 5% CO2, 37° C. incubator for 10 to 14 days. Media was replaced every fourth day. Cells were stained with 1% crystal violet (Sigma Aldrich) for five minutes and rinsed with PBS. Colonies were counted and data is presented as the percentage of change compared to the control. All Experiments were repeated at least three times.
# RL95-2 cells [4] = assay: Colony forming / invasive growth assay in Matrigel; assay type: cell-based, human; conditions: RL95-2 in Matrigel, addition of TGF-β (10 ng/ml)
# Method: To determine if PME-1 contributes to the more invasive and metastatic phenotypes, we performed a colony forming assay in matrigel.
# The 3D On Top Matrigel Assay was completed in 24 well dishes as described previously {Lee, 2007 #1577}. Briefly, the bottoms of 24 well dishes were coated with 50 μl BD Matrigel Basement Matrix Phenol Red Free (BD Biosciences cat. #356237) and allowed to solidify at 37° C. 10^5 cells were suspended in 250 μl chilled medium containing either 10 ng/ml of TGF-b or vehicle and allowed to settle at 37° C. for 30 minutes. Chilled medium containing 10% of Matrigel was added by pipetting gently down the sidewall of the well and incubated at 37° C. for ten days changing top medium every second day. Colony counts were performed on the tenth day, averages were taken from three fields of view using a 10× objective. Experiment was repeated three times.
# PPME1 = assay: qRT-PCR of PPME1 (PME-1) expression in RL95-2 cells; assay type: cell-based, human; conditions: TGF-β 24 hours, control cells and +PME-1 cells, normalized to GAPDH
# Method: In this study, we transfected RL95-2 cells to express empty vector (Control), over-expressing PME-1 (+PME-1) or expressing shRNA against PME-1 (−PME-1) followed by serum starvation for 24 hours. Afterwards, either vehicle or TGF-β treatment was performed at the end of the 24 hours. TGF-β was used to induce cells to initiate the EMT program. Gene expression analysis was conducted using quantitative real-time PCR.
# Using RL95-2 endometrial cancer cells, we overexpressed PME-1 (FIG. 21A) or depleted PME-1 with shRNA (FIG. 21B) and confirmed that PME-1 was appropriately expressed.
# Total RNA was extracted with Qiagen RNAEasy kit from RL95-2 cells. cDNA was synthesized using 500 ng-1 μg of RNA and SuperScript VILO c-DNA mix (Life Technologies). Taqman probes and PCR-mix were purchased from Life Technologies. All samples were run in triplicates. Results are representative of three independent experiments in which genes of interest were normalized to the house-keeping gene, 18S or GAPDH, where fold-change was calculated using the ddCt method.
# PME-1 = assay: Western blot of PME-1 protein in RL95-2 cells; assay type: cell-based, human; conditions: GAPDH loading control
# Description: We prepared RL95-2 cell lines expressing empty vector (control), over-expressing PME-1 (+PME-1), or expressing shRNA against PPME1, the gene that codes for PME-1 protein (−PME-1). Using these cells, we confirmed the appropriate level of PME-1 via real-time RT-PCR (data not shown) and Western blot analysis (FIG. 8). GAPDH was used as a loading control.
# We also prepared two different shRNAs targeted against PME-1.
# Lentivirus was produced in HEK293T cell lines with pLKO shRN vectors (Thermo Scientific, cat. no. RHS4533; Waltham, Mass.) and pCDH-CuO-GFP-Puro vectors (System Biosciences, Inc., cat. no. QM513B-1; Mountain View, Calif.) with pPACKH1 packaging plasmid (System Biosciences, Inc., cat, no. LV050A-1). shRNA sequences are in the Table 2. Lentivirus was collected and concentrated with Peg-IT concentrating solution (System Biosciences, Inc.). 5×10^6 ifu/ml lentivirus was added to cell cultures with growth media and 8 μg/ml PolyBrene (Sigma Aldrich). Media was changed to full growth media after 24 hrs and to selection media containing antibiotic after 48 hrs (5 μg/ml puromycin) (Invivogen) for 10 days.
# 15 μg of protein was used for western analysis. […]
compound,measurement,setting,value
"COC(=O)N1C(=O)C(c2ccccc2)(C2CCCC2)N1C(=O)OC (stereo in doubt) [ABL-127, (3R)-Dimethyl 3-cyclopentyl-4-oxo-3-phenyl-1,2-diazetidine-1,2,-dicarboxylate]",decrease in the amount of foci formed,[1]; 50 nM every 2-3 days for 10 days,~50%
same,percentage of cells capable of migrating,Ishikawa cells; 50 nM,dramatic decrease
same,Tm,"recombinant PME-1_des3; 50 μM ABL-127, 10 min pre-incubation at 37° C., PME-1+DMSO ˜55° C.",~65 °C
same,melting temperature (Tm) and thermal stability of PME-1,recombinant PME-1_des3; binding of ABL-127 vs vehicle,increases
"N#C/C(=C\c1cccn1S(=O)(=O)c1cccc([N+](=O)[O-])c1)S(=O)(=O)c1ccc(F)cc1 [AMZ-30, (E)-2-(4-Fluorophenylsulfonyl)-3-(1-(3-nitrophenylsulfonyl)-1H-pyrrol-2-yl)-acrylonitrile]",decrease in the amount of foci formed,[1]; 25 μM every 2-3 days for 10 days,~50%
same,percentage of cells capable of migrating,Ishikawa cells; 20 μM,dramatic decrease
"PME-1 (endogenous, RL95-2 cells) (from UniProt Q9Y570 2-386) (enzyme)",PP2A activity (phosphatase assay) after shRNA depletion of PME-1 in RL95-2 cells,[2],30 fold
PME-1 over-expressed in RL95-2 cells (+PME-1) (from UniProt Q9Y570 1-386) (enzyme),PP2A activity (phosphatase assay) after over-expression of PME-1 in RL95-2 cells,[2],90 % decrease
"PPME1 siRNA no. 2: siRNA, SEQ ID NO: 5: GTG GAT AGC ATC ACA AGA A, targets 3′-UTR (guide GTGGATAGCATCACAAGAA; listed as DNA, chemistry not given here; listed as Homo sapiens)",decrease in foci formed,"RL95-2 cells [3]; RL95-2, siRNA followed by empty vector, vs control siRNA with empty vector",40%
same,reduction in foci formation,"RL95-2 cells [3]; RL95-2, siRNA plus over-expressed S156A mutant PME-1",40%
TGF-β [reference compound],colony number,RL95-2 cells [4],overall decrease
same,increase in PME-1 expression,PPME1,~2 fold
"shPPME1 no. 1: shRNA targeting PPME1, SEQ ID NO: 1: GTACAGCTATGGATGCACTTA, bp 554-574 (guide GTACAGCTATGGATGCACTTA; listed as Homo sapiens)",PME-1 levels via Western blot analysis,PME-1,significantly decreased
